Assay results as given in patent US7442802B2, “Cyclooxygenase-2 selective inhibitors, compositions and methods of use” (NitroMed, Inc., priority 2002, dated 2008).
Like-named read-outs stand apart in the source and are kept apart here.

Assays:
[1] = molecular target: T1, COX-2 (Homo sapiens, UniProt P35354); assay: Human COX-2 enzyme activity in human whole blood (LPS-induced, thromboxane B2 EIA); type: cell-based; details: for inhibition at 1 µM: read-out: COX-2 Inhibition (% at 1 μM); for inhibition at 10 µM: read-out: COX-2 Inhibition (% at 10 μM)
T1 construct: To induce COX-2, lipopolysaccharide (LPS) from E. coli; endogenous in cells; host or cells: heparinised human whole blood from donors, with COX-2 induced by E. coli LPS
T1 sequence (P35354 18-604): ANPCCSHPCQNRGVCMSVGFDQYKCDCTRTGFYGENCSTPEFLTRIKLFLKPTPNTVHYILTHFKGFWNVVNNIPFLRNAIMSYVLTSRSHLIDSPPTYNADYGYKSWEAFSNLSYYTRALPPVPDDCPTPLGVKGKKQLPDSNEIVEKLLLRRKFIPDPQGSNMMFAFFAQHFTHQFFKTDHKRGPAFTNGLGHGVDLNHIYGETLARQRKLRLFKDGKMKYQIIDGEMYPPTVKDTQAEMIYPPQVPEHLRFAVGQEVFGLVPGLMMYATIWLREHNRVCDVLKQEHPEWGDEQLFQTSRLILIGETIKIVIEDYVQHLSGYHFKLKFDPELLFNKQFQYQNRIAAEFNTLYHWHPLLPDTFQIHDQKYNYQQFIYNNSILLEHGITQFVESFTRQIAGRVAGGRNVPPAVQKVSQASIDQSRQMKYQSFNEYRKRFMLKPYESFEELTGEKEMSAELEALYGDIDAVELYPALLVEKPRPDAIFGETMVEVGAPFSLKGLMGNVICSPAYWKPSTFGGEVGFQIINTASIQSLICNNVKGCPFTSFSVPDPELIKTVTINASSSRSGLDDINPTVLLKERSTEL
Description: (§1) The blood was transported to the laboratory on ice packs and used within 1.5 hours of collection. Upon receipt in the laboratory, the blood was allowed to come to room temperature for 15 minutes prior to distribution in 1 mL aliquots per well of 24 well tissue culture plates. […] Test compounds were dissolved in DMSO, at 1000 fold the final desired concentration, and further diluted, as indicated, in DMSO. One μL of each dilution of the test compound was added per well, in duplicate wells; wells not receiving test compound (e.g., basal, background or control wells) received 1 μL DMSO. […] Louis, Mo., Catalogue No. […] Louis, Mo., Catalogue No. […] (Again, basal, background or control wells not stimulated with A23187 received 1 μL of DMSO.) At 5 hours after the addition of the test compound, all incubations were terminated by placement on ice and the addition of 2 mM EGTA (100 μL of 20 mM EGTA, tetrasodium, in PBS (phosphate buffered saline) without Ca^++ and Mg^++, pH 7.2)). […] One hundred μL of plasma was removed from each blood sample and added to 1 mL of methanol in new 15 mL polypropylene centrifuge tubes, vortexed, and stored overnight at -20° C. […] The samples were assayed for thromboxane B2 using EIA kits supplied by Cayman Chemical Co. […] The % inhibition for COX-1 and COX-2 enzyme activity in human whole blood by the test compounds, at the indicated concentrations, are given in Table 1.

[2] = molecular target: T2, COX-1 (Homo sapiens, UniProt P23219); assay: Human COX-1 enzyme activity in human whole blood (A23187-stimulated, thromboxane B2 EIA); type: cell-based; details: for inhibition at 100 µM: read-out: COX-1 Inhibition (% at 100 μM)
T2 construct: endogenous in cells; host or cells: heparinised human whole blood from donors, stimulated with the calcium ionophore A23187
T2 sequence (P23219 24-599): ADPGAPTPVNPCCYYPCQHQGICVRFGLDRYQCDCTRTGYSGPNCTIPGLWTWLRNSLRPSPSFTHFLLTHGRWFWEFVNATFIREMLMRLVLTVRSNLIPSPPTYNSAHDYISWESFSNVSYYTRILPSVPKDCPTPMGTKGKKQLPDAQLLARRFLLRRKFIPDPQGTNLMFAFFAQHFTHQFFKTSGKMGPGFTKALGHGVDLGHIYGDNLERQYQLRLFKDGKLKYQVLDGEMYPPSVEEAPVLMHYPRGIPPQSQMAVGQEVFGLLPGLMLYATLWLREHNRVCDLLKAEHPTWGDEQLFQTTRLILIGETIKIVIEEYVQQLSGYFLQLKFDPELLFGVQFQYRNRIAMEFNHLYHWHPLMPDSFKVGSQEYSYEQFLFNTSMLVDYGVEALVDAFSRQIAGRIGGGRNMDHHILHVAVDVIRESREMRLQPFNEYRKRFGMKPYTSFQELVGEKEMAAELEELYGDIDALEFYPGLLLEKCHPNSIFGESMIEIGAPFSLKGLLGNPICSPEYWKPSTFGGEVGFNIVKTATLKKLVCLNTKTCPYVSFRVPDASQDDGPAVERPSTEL
Description: as §1

[3] = 1 μM, human whole blood, LPS induction
[4] = 10 μM, human whole blood, LPS induction
[5] = 100 μM, human whole blood, A23187 stimulation

| inhibition at 1 µM [1, 3] [%] | inhibition at 10 µM [1, 4] [%] | inhibition at 100 µM [2, 5] [%] | Structure (SMILES) | COX-2 Inhibition (% at 1 μM) [1, 3] [%] | COX-2 Inhibition (% at 10 μM) [1, 4] [%] | COX-1 Inhibition (% at 100 μM) [2, 5] [%] | also measured |
| --- | --- | --- | --- | --- | --- | --- | --- |
| – | – | – | Cc1ccc(-c2[nH]nc(COCCCO[N+](=O)[O-])c2-c2ccc(S(N)(=O)=O)cc2)cc1 [Example 20g, 4-(5-(4-Methylphenyl)-3-((3-(nitrooxy)propoxy)methyl)pyrazolyl)benzenesulfonamide] | – | – | – | melting point: 62 °C |
| – | – | – | CS(=O)(=O)c1ccc(-c2cc(C(=O)CCCCCO[N+](=O)[O-])nn2C2CCCCC2)cc1 [Example 22d] | 30 | 30 | 75 | – |
| 0 | 10 | -20 | CS(=O)(=O)c1ccc(-c2cc(C(=O)CCCO)nn2-c2ccc(C(F)(F)F)cc2)cc1 [Example 23d, 4-Hydroxy-1-(5-(4-(methylsulfonyl)phenyl)-1-(4-(trifluoromethyl)-phenyl)pyrazol-3-yl)butan-1-one] | – | – | – | – |
| 50 | 85 | 85 | COc1ccc(-n2nc(C(=O)CCCO)cc2-c2ccc(S(C)(=O)=O)cc2)cc1 [Example 24d, 4-Hydroxy-1-(1-(4-methoxyphenyl)-5-(4-(methylsulfonyl)phenyl)-pyrazol-3-yl)butan-1-one] | – | – | – | – |
| – | – | – | CS(=O)(=O)c1ccc(-n2nc(/C=C\CCO)cc2-c2cccnc2)cc1 [Example 25e, 1-(3-((1Z)-4-Hydroxybut-1-enyl)-5-(3-pyridnyl)pyrazolyl)-4-(methylsulfonyl)benzene] | 15 | 0 | 10 | – |
| – | – | – | NS(=O)(=O)c1ccc(-c2c(-c3ccccc3)noc2COCCCO)cc1 [Example 26a] | 50 | 85 | 25 | – |
| – | – | – | NS(=O)(=O)c1ccc(-c2c(-c3ccccc3)noc2COCCCO[N+](=O)[O-])cc1 [Example 26b] | 55 | 100 | 70 | – |
| – | – | – | NS(=O)(=O)c1ccc(-c2c(-c3ccccc3)noc2COCCO)cc1 [Example 27a] | 40 | 90 | 45 | – |
| – | – | – | NS(=O)(=O)c1ccc(-c2c(-c3ccccc3)noc2COCCO[N+](=O)[O-])cc1 [Example 27b] | 50 | 100 | 65 | – |
| – | – | – | CS(=O)(=O)c1ccc(-c2cc(CCO[N+](=O)[O-])nn2C2CCCCC2)cc1 [Example 30d, 4-(1-Cyclohexyl-3-(2-(nitrooxy)ethyl)pyrazol-5-yl)-1-(methylsulfonyl)benzene] | – | – | – | melting point: 117 °C |
| 0 | 15 | 10 | CS(=O)(=O)c1ccc(-c2cc(/C=C/CO)nn2C2CCCCC2)cc1 [Example 31c, 4-(3-((1E)-3-Hydroxyprop-1-enyl)-1-cyclohexylpyrazol-5-yl)-1(methylsulfonyl)benzene] | – | – | – | – |
| – | – | – | CS(=O)(=O)c1ccc(-c2cc(CCCO[N+](=O)[O-])nn2C2CCCCC2)cc1 [Example 31e, 4-(1-Cyclohexyl-3-(3-(nitrooxy)propyl)pyrazol-5-yl)-1-(methylsulfonyl)benzene] | – | – | – | melting point: 77 °C |
| 15 | 75 | -20 | NS(=O)(=O)c1ccc(-c2c(-c3ccccc3)noc2COCC(F)(F)CO)cc1 [Example 32c, 4-(5-((2,2-Difluoro-3-hydroxypropoxy)methyl)-3-phenylisoxazol-4-yl)benzenesulfonamide] | – | – | – | – |
| – | – | – | NS(=O)(=O)c1ccc(-c2c(-c3ccccc3)noc2COCC(F)(F)CO[N+](=O)[O-])cc1 [Example 32d, 4-(5-((2,2-Difuoro-3-(nitrooxy)propoxy)methyl)-3-phenylisoxazol-4-yl)benzenesulfoamide] | 20 | 85 | 0 | – |
| – | – | – | NS(=O)(=O)c1ccc(-c2c(-c3ccccc3)noc2COCC(F)(F)C(F)(F)CO)cc1 [Example 33a] | 40 | 100 | 75 | – |
| – | – | – | NS(=O)(=O)c1ccc(-c2c(-c3ccccc3)noc2COCC(F)(F)C(F)(F)C(F)(F)CO)cc1 [Example 34a, 4-(5-((2,2,3,3,4,4-Hexafluoro-5-hydroxypentyloxy)methyl)-3-phenylisoxazol-4-yl)benzenesulfonamide] | – | – | – | inhibition at 1 µM [1]: 90%; inhibition at 10 µM [1]: 100%; inhibition at 100 µM [2]: 95% |
| – | – | – | CS(=O)(=O)c1ccc(-c2cc(C(=O)CO[N+](=O)[O-])nn2-c2ccccn2)cc1 [Example 35c, 1-(5-(4-(Methysulfonyl)phenyl)-1-(2-pyridyl)pyrazol-3-yl)-2-(nitrooxy)ethan-1-one] | 25 | 30 | 0 | – |
| 35 | 90 | 50 | NS(=O)(=O)c1ccc(-c2c(-c3ccccc3)noc2COCCS(=O)(=O)CCO)cc1 [Example 37b, 4-(5-((2-((2-Hydroxyethyl)sulfonyl)ethoxy)methyl)-3-phenylisoxazol-4-yl)benzenesulfonamide] | – | – | – | – |
| – | – | – | NS(=O)(=O)c1ccc(-c2c(-c3ccccc3)noc2COCCS(=O)(=O)CCO[N+](=O)[O-])cc1 [Example 37c] | 20 | 20 | −15 | – |
| 15 | 25 | 10 | CS(=O)(=O)c1ccc(-c2cc(CNCCO)nn2C2CCCCC2)cc1 [Example 38c, 1-(1-Cyclohexyl-3-(((2-hydroxyethyl)amino)methyl)pyrazol-5-yl)-4-(methylsulfonyl)benzene] | – | – | – | – |
| 85 | 100 | 100 | COc1ccc(-n2nc(COCCCO[N+](=O)[O-])cc2-c2ccc(S(C)(=O)=O)cc2)cc1 [Example 39, 4-(1-(4-Methoxyphenyl)-3-((3-(nitrooxy)propoxy)methyl)pyrazol-5-yl)-1-(methylsulfonyl)benzene] | – | – | – | – |
| 0 | 45 | 40 | CS(=O)(=O)c1ccc(-c2cc(/C=C/CO[N+](=O)[O-])nn2C2CCCCC2)cc1 [Example 41, 1-(3-((1E)-3-(Nitrooxy)prop-1-enyl)-1-cyclohexylpyrazol-5-yl)-4-(methylsulfonyl)benzene] | – | – | – | – |
| 0 | 10 | 30 | NS(=O)(=O)c1ccc(-c2cc(C(=O)CCCO)nn2C2CCCCC2)cc1 [Example 43g, 4-(1-Cyclohexyl-3-(4-hydroxybutanoyl)pyrazol-5-yl)benzenesulfonamide] | – | – | – | – |
| 30 | 60 | 10 | CS(=O)(=O)c1ccc(-c2cc(C(=O)CCCO)nn2-c2ccc(Cl)cc2)cc1 [Example 44d, 1-(1-(4-Chlorophenyl)-5-(4-(methylsulfonyl)phenyl)pyrazol-3-yl)-4-hydroxybutan-1-one] | – | – | – | – |
| 30 | 65 | 85 | CS(=O)(=O)c1ccc(-c2cc(CCCC(=O)OCCCO[N+](=O)[O-])nn2-c2ccc(C(F)(F)F)cc2)cc1 [Example 47f, 3-(Nitrooxy)propyl 4-(5-(4-(methylsulfonyl)phenyl)-1-(4-(trifluoromethyl)-phenyl)pyrazol-3-yl)butanoate] | – | – | – | – |
